The structures appear in SMILES notation. Values after ≈ are worked out from the molar mass of the structure shown. Where two headings read alike, the source gives them in different places.

Data set [1] relates to human primary colonic fibroblasts (CCD-18Co) activated with TGF-β. The data set is described as follows: High throughput microscopy-based drug screening (α-SMA and COL1A1 immunocytochemistry). The conditions noted are these: TGF-β-activated CCD-18Co, 4 mM. The data set is classed as cell-based. An excerpt: To identify potential antifibrotic agents, a high-throughput microscope-based drug screening approach using human primary colonic fibroblasts (CCD-18Co) activated with transforming growth factor-β (TGF-β) was used. A panel of 1,586 FDA-approved small molecule drugs were then screened for their ability to reduce expression of α-SMA and type 1 collagen (COL1A1) as assessed by fluorescent immunocytochemistry. Based on its known antifibrotic effects, pirfenidone was included in this screen and found effective at a dose of 4 mM (FIG. 1A).
Human primary colonic fibroblasts (CCD-18Co) were seeded in 96 well flat bottom plate. Twenty-four hours later, cells were washed and starved with alpha-MEM medium without FBS for 24 h. The cells were then washed and the media was replaced with alpha-MEM supplemented with 10% FBS containing 5 ng/ml TGF-β and activated for 48 h. The cells were then washed again and fresh medium containing 5 ng/ml TGF-β and 10 μM of a drug from a library of 1,586 FDA approved small molecules was applied to the cells. After 4 days, the cells were fixed with 10% neutral formalin for 15 min and permeabilized with 0.5% Triton X-100 in PBS. […] Images were analyzed with Image J2 Fiji (NIH, Bethesda, MD) to determine the drug treatment efficacy as assessed by reduction in the intensity of α-SMA and collagen staining per cell. […]

For data set [2], the system named is CCD-18Co cells. As to the kind of experiment: RT-PCR of α-SMA (ACTA2) expression in activated CCD-18Co cells. Type of data set: cell-based, human. As for the experimental part:
(§1) RNA was extracted using TRIzol Reagent as previously described. Li et al., 2017. RNAs were reverse transcribed into cDNA with ReverAid First Strand cDNA synthesis kit. SYBR Green PCR Master Mix kit was utilized for the real time PCR using a QuantStudio 3 PCR machine (Applied Biosystems, Waltham, MA). Primers used are detailed in Table 6. Each reaction was performed in triplicate for each primer with a no-template negative control. QuantStudio Design and Analysis Software 1.5.2 was used to analyze the data using the ΔΔCT method.

The subject of the next data set is LX2 cells. As to the kind of experiment: RT-PCR of α-SMA (ACTA2) expression in activated LX2 cells. Type of data set: cell-based, human. The conditions noted are these: activated LX-2. As for the experimental part:
as §1

Data set [3] relates to bleomycin-induced mouse skin fibrosis model. The data set is described as follows: Bleomycin-induced skin fibrosis model. The data set is classed as in vivo. The conditions noted are these: 4 weeks. As for the experimental part:
There is a paucity of animal models of GI tract fibrosis/strictures. Li et al., 2021. To obtain preliminary evidence regarding efficacy of Sul-NC as antifibrotic in vivo, a well-described and reproducible bleomycin-induced rodent skin fibrosis model was used. Yamamoto et al., 1999. To induce fibrosis, bleomycin was injected in mouse skin at five spots within a 1×1 cm region on the back every other day for four weeks (FIG. 3), as previously described. Yamamoto et al., 1999. […] In addition, the Masson's Trichrome staining confirmed that the thickness of the dermis was due to deposition of collagen and other ECM proteins (blue staining in the figure). Of note, there was a striking difference between the dose and frequency of administration when comparing pirfenidone (daily dosing, total dose 2,800 mg/kg) vs Sul-NC (once weekly, total dose 200 mg/kg).
5-8 week old male C57BL/6J mice were utilized for bleomycin induced skin fibrosis model. The upper back was shaved, and 100 μL bleomycin (0.5 mg/ml in PBS) was injected subcutaneously every other day into one of five sectors in a defined 1-cm^2 area (see FIG. 3). […] Five representative images for each mouse were taken to quantify skin dermal thickness. For each image, five different areas were measured by a masked observer with image J Fiji (NIH, Bethesda, MD). Data were analyzed with GraphPad Prism 9 (San Diego, CA, USA).

Data set [4] deals with small intestine fibrosis mouse model. As to the kind of experiment: Mouse intestine transplant fibrosis model. The conditions noted are these: three times daily oral 100 mg/kg for 7 days. The data set is classed as in vivo. As to the method: An intestine transplantation model (FIG. 6) that was previously used to validate the antifibrotic efficacy of oral pirfenidone was employed. Meier et al., 2016. Sul-NC at a dose of 50 mg/kg or 150 mg/kg was given as a single injection at the site of the transplant and compared to oral pirfenidone at the dose previously described to be effective in the model, three times daily oral dosing with 100 mg/kg. […] Again, there was a striking difference between the dose and frequency of administration when comparing pirfenidone (three times daily dosing, total dose 2,100 mg/kg) vs Sul-NC (single dose, 50 mg/kg).
5-8 week old male C57BL/6J mice were utilized in an intestine transplantation model with minor modifications (FIG. 6). Meier et al., 2016. Briefly, a 6-cm segment of small intestine proximal to the ileocecal valve was excised from a donor mouse in a sterilized biosafety cabinet. The tissue was washed with cold saline 3 times, and carefully cut into 1 cm segments that were placed in a petri dish with cold saline. The back neck of the recipient mice was shaved. […] Four representative images were taken for each tissue to quantify the collagen thickness. For each image, 10 different areas were measured by a masked observer with image J Fiji (NIH, Bethesda, MD). Data were analyzed with GraphPad Prism 9 (San Diego, CA, USA).

Data set [5] relates to CCD-18Co cells. The data set is described as follows: Western blot of α-SMA and COL1A1 in activated CCD-18Co cells. The conditions noted are these: 10 μM, 96 h. The data set is classed as cell-based, human. As for the experimental part:
(§2) LX2 and CCD-18Co were seeded in 6 well plate. Twenty-four hours later, cells were washed and starved with Alpha MEM medium without FBS for 24 h. The cells were then washed and the media was replaced with Alpha MEM supplemented with 10% FBS containing 5 ng/ml TGF-β and activated for 48 h. […] The cells were then washed three times with cold PBS and treated with protein lysis RIPA buffer with complete protease inhibitor cocktail. Protein concentration was determined with Pierce BCA protein Assay Kit. 20 μg of total protein lysate from each treatment group was loaded into each well of a Mini-Protean TGX gel (4-15%), and electrophoresis was performed using 1× Tris/Glycine/SDS Buffer. Proteins were then transferred to nitrocellulose membranes using 1× Tris/Glycine with methanol. Membranes were blocked with Intercept (TBS) blocking buffer for 1 h at room temperature and then incubated with anti-α-SMA antibody (1:1000), and COL1A1 antibody (1:1000) at 4° C. overnight. Membranes were washed with TBS-0.1% Tween three times for 10 min each, and then incubated in IRDye-Secondary antibodies (1:10,000) at room temperature for 1 h. The membranes were then washed with TBS-0.1% Tween three times for 10 min each and rinsed with 1×TBS to remove residual Tween20. Membranes were then scanned with an Odyssey Image System (Li-Cor, Lincoln, NE, USA).
(A western blot detects proteins with antibodies after separation by electrophoresis.)

Data set [6] relates to human hepatic stellate cells (LX2). As to the kind of experiment: Western blot of α-SMA and COL1A1 in activated LX2 cells. Type of data set: cell-based. The conditions noted are these: activated LX2, 10 μM, 96 h. As to the method:
as §2

Data set [7] can be described thus: In vitro drug release under accelerated conditions (rapid equilibrium dialysis). The data set is classed as physicochemical. As for the experimental part:
Sul-NC (5 mg/mL, 50 μL) were placed in a rapid equilibrium dialysis s(RED) device with an 8 kDa molecular weight cutoff (n=3). The outer reservoir was filled with 1 mL of 0.5% Tween 80 in phosphate buffered saline (PBS-T) solution. The samples were incubated on an orbital shaker with temperature control at 37° C. and 300 rpm. Every 24 h, 1 mL of the solution was collected and replenished with fresh 1 mL PBS-T solution. […] Mobile phase A was water containing 0.1% trifluoroacetic acid (TFA) and mobile phase B was acetonitrile containing 0.1% TFA. The isocratic flow was composed 70% of mobile phase A and 30% mobile phase B at 1 mL/min flow rate for 10 min. […] The drug amount was quantified and used to calculate the accumulation percentage. The release curves were plotted with GraphPad Prism 9 (San Diego, CA).
(In general: In equilibrium dialysis free small molecules cross a membrane that holds back macromolecules.)

The nature of a further data set: physchem. Type of data set: physicochemical.
For data set [8] the following is noted: mouse, in vivo, sc, 50 mg/kg. As to the method: Each treatment group contain 3-9 mice. […] MTD was injected and blood were taken for liver and kidney function test (Table 5).
The next data set deals with C57BL/6J mice. The conditions noted are these: both, mouse, in vivo; for Survival: ip.
A further data set is described as follows: in vivo. The conditions noted are these: both, C57BL/6J, mouse, sc.
For data set [9] the following is noted: topical dosing; cited from earlier work.

Consider `Cc1ccc(=O)n(-c2ccccc2)c1` [pirfenidone], for which, in data set [1], the “decrease in the staining of α-SMA and COL1A1” value is given as “effective”. Also, the “concentration below which no effect on ACTA2 expression was shown” value in the data set with CCD-18Co cells [2] and in the data set with LX2 cells was 4 mM throughout. The “thickness of the dermis compared to Vehicle” value in data set [3] (daily oral 100 mg/kg) was “significantly reduced”. Moreover, in data set [4], the collagen layer thickness was found to be 9.1±0.3 μm.

Turning to `Clc1ccc(CSC(Cn2ccnc2)c2ccc(Cl)cc2Cl)cc1` (centres unmarked) [sulconazole], the “protein production of α-SMA and COL1A1 (Western blot)” value (in the data set on CCD-18Co cells [5]; in [6]) was “significantly reduced” each time. Further, in [7], the “passage of free drug through the dialysis membrane” value is on record as “not impeded by the dialysis membrane”. Moreover, the solubility in “physchem” came out at 240 µg/mL (≈ 603 µM). In data set [8], the “blood level of ALT and BUN” value is on record as “increased”. Further, the “thickness of the dermis compared to Vehicle” value in [3] (10-mg/kg IP every other day) is “significantly reduced”. The “dose resulting in reduced survival” value in the data set with C57BL/6J mice is on record as 50 mg/kg. For the same compound, the Survival in the data set on C57BL/6J mice (15 mg/kg), with C57BL/6J mice (30 mg/kg) and with C57BL/6J mice (40 mg/kg) was 5/5 (100%) throughout. The compound also displayed an MTD in the data set “in vivo” of 50 mg/kg. Besides, in data set [9], the “elimination via the feces” value was “one of the primary clearance routes”.

A word on the solubility: it is how much of the substance goes into solution per volume. Higher therefore signals much dissolved substance.

Source of the values: patent US20250387371A1, “COMPOSITIONS AND FORMULATION METHODS FOR SUSTAINED LOCAL RELEASE OF ANTIFIBROTICS” (THE HOPKINS UNIVERISTY, priority 2022, published 2025).
